# Test results published in patent US20130212744A1, “METHOD OF REDUCING INSECT-VECTORED VIRAL INFECTIONS” (priority 2010, published 2013).
# Read-outs that look alike come from different tables or passages of the source.
# What was measured:
# Assay type in all cases: in vivo
# [1] = system: TYLCV (tomato yellow leaf curl virus); assay: Foliar use field trial on tomato, infected leaf area by TYLC virus
# Method: (§1) Two studies were carried out in Elhasanya, Egypt in 2009 on tomato plants of the variety Fayrouz with the main goal to measure efficacy on the whitefly Bemisia tabaci. The plot size was 4.8 m^2 and 6 replicates were used in the trial. Products were applied 3 times on young tomato plants at BBCH stages 14, 17 and 51 at spray intervals between 12 and 19 days. The spray volume was at the first application 350 l/ha and later 500 l/ha. The evaluation of this study was done counting the adult whiteflies (Bemisia tabaci) as well as the nymphs and the eggs in each plot. In addition to the direct whitefly effect, visual symptoms of the virus, mainly TYLCV (tomato yellow leaf curl virus) were evaluated also.
# (§2) ASM=Acibenzolar-S-methyl. WG 50=Actigard® 50WG, a water-dispersible granule with the active ingredient ASM CYNT=Cyantraniliprole. WG 40=Cyazypyr®, a water dispersable granule with the active ingredient CYNT. Results on whitefly adults. Trial 1
# Evaluation of percentage of infected leaf area by TYLC virus (average of 45 plants evaluated per treatment) Trial 1
# [2] = system: whitefly Bemisia tabaci nymphs; assay: Soil use (drench) field trial on tomato, efficacy on whitefly nymphs; conditions: for Emax at 12.5 g/ha: 12.5 g ai/ha; for Emax at 25 g/ha: 25 g ai/ha
# Method: Two soil applied studies were carried out in Elhasanya, Egypt in 2009 on tomato plants with the main goal to measure efficacy on the whitefly Bemisia tabaci. The plot size was 4.8 m^2 and 6 replicates were used in the trial. […] The spray volume was at the first application 350 l/ha. The evaluation of this study was done counting the adult whiteflies (Bemisia tabaci) as well as the nymphs and the eggs in each plot. In addition to the direct whitefly effect, visual symptoms of the virus, mainly TYLCV (tomato yellow leaf curl virus) were evaluated also.
# [3] = system: whitefly Bemisia tabaci adults; assay: Foliar use field trial on tomato, efficacy on whitefly adults; conditions: Bemisia tabaci, foliar
# Method: as §1, §2
# [4] = system: whitefly Bemisia tabaci nymphs; assay: Foliar use field trial on tomato, efficacy on whitefly nymphs; conditions: Bemisia tabaci, foliar
# Method: as §1, §2
structure (smiles),measurement,setting,value
"CSC(=O)c1cccc2nnsc12 [ASM, S-methyl benzo[1,2,3]thiadiazole-7-carbothioate]",% Infected Surface area with virus / plant,"[1]; 12.5 g ai/hl, 5DAA2, Trial 1",0.0%
same,% Infected Surface area with virus / plant,"[1]; 12.5 g ai/hl, 5DAA2, Trial 2",0.0%
same,% Infected Surface area with virus / plant,"[1]; 12.5 g ai/hl, 5DAA3, Trial 1",1.0%
same,% Infected Surface area with virus / plant,"[1]; 12.5 g ai/hl, 5DAA3, Trial 2",1.0%
same,% Infected Surface area with virus / plant,"[1]; 12.5 g ai/hl, 10DAA3, Trial 1",9.6%
same,% Infected Surface area with virus / plant,"[1]; 12.5 g ai/hl, 10DAA3, Trial 2",9.6%
same,% Infected Surface area with virus / plant,"[1]; 12.5 g ai/hl, 15DAA3, Trial 1",9.9%
same,% Infected Surface area with virus / plant,"[1]; 12.5 g ai/hl, 15DAA3, Trial 2",9.9%
same,% Infected Surface area with virus / plant,"[1]; 12.5 g ai/hl, 20DAA3, Trial 1",10.7%
same,% Infected Surface area with virus / plant,"[1]; 12.5 g ai/hl, 20DAA3, Trial 2",10.7%
same,% Infected Surface area with virus / plant,"[1]; 12.5 g ai/hl, 24DAA3, Trial 1",14.4%
same,% Infected Surface area with virus / plant,"[1]; 12.5 g ai/hl, 24DAA3, Trial 2",14.4%
same,% Infected Surface area with virus / plant,"[1]; 25 g ai/hl, 5DAA2, Trial 1",0.0%
same,% Infected Surface area with virus / plant,"[1]; 25 g ai/hl, 5DAA2, Trial 2",0.0%
same,% Infected Surface area with virus / plant,"[1]; 25 g ai/hl, 5DAA3, Trial 1",0.0%
same,% Infected Surface area with virus / plant,"[1]; 25 g ai/hl, 5DAA3, Trial 2",0.0%
same,% Infected Surface area with virus / plant,"[1]; 25 g ai/hl, 10DAA3, Trial 1",3.3%
same,% Infected Surface area with virus / plant,"[1]; 25 g ai/hl, 10DAA3, Trial 2",3.3%
same,% Infected Surface area with virus / plant,"[1]; 25 g ai/hl, 15DAA3, Trial 1",4.7%
same,% Infected Surface area with virus / plant,"[1]; 25 g ai/hl, 15DAA3, Trial 2",4.7%
same,% Infected Surface area with virus / plant,"[1]; 25 g ai/hl, 20DAA3, Trial 1",5.0%
same,% Infected Surface area with virus / plant,"[1]; 25 g ai/hl, 20DAA3, Trial 2",5.0%
same,% Infected Surface area with virus / plant,"[1]; 25 g ai/hl, 24DAA3, Trial 1",7.2%
same,% Infected Surface area with virus / plant,"[1]; 25 g ai/hl, 24DAA3, Trial 2",7.2%
same,Emax at 12.5 g/ha,"[2]; 25DAA1, Trial 2",29%
same,Emax at 12.5 g/ha,"[2]; 30DAA1, Trial 2",39%
same,Emax at 12.5 g/ha,"[2]; 35DAA1, Trial 2",22%
same,Emax at 12.5 g/ha,"[2]; 40DAA2, Trial 2",11%
same,Emax at 25 g/ha,"[2]; 25DAA1, Trial 2",69%
same,Emax at 25 g/ha,"[2]; 30DAA1, Trial 2",43%
same,Emax at 25 g/ha,"[2]; 35DAA1, Trial 2",14%
same,Emax at 25 g/ha,"[2]; 40DAA2, Trial 2",6%
same,Emax at 12.5 g/ha,"[2]; 240 h, 10DAA, Trial 1",47%
same,Emax at 25 g/ha,"[2]; 240 h, 10DAA, Trial 1",50%
same,Emax at 12.5 g/ha,"[2]; 360 h, 15DAA, Trial 1",21%
same,Emax at 25 g/ha,"[2]; 360 h, 15DAA, Trial 1",47%
same,Emax at 12.5 g/ha,"[2]; 480 h, 20DAA, Trial 1",31%
same,Emax at 25 g/ha,"[2]; 480 h, 20DAA, Trial 1",54%
same,Emax at 12.5 g/ha,"[2]; 600 h, 25DAA, Trial 1",60%
same,Emax at 25 g/ha,"[2]; 600 h, 25DAA, Trial 1",50%
same,Emax at 12.5 g/ha,"[2]; 720 h, 30DAA, Trial 1",47%
same,Emax at 25 g/ha,"[2]; 720 h, 30DAA, Trial 1",49%
same,Emax at 12.5 g/ha,"[2]; 840 h, 35DAA, Trial 1",41%
same,Emax at 25 g/ha,"[2]; 840 h, 35DAA, Trial 1",44%
same,Emax at 12.5 g/ha,"[2]; 960 h, 40DAA, Trial 1",28%
same,Emax at 25 g/ha,"[2]; 960 h, 40DAA, Trial 1",33%
same,Emax,"[3]; 12.5 g ai/hl, 5DAA1, Trial 1, read-out: % Efficacy on Adults",53%
same,Emax,"[3]; 12.5 g ai/hl, 5DAA1, Trial 2, read-out: % Efficacy on Adults",53%
same,Emax,"[3]; 12.5 g ai/hl, 5DAA2, Trial 1, read-out: % Efficacy on Adults",45%
same,Emax,"[3]; 12.5 g ai/hl, 5DAA2, Trial 2, read-out: % Efficacy on Adults",45%
same,Emax,"[3]; 12.5 g ai/hl, 5DAA3, Trial 1, read-out: % Efficacy on Adults",55%
same,Emax,"[3]; 12.5 g ai/hl, 5DAA3, Trial 2, read-out: % Efficacy on Adults",55%
same,Emax,"[3]; 12.5 g ai/hl, 10DAA1, Trial 1, read-out: % Efficacy on Adults",43%
same,Emax,"[3]; 12.5 g ai/hl, 10DAA1, Trial 2, read-out: % Efficacy on Adults",43%
same,Emax,"[3]; 12.5 g ai/hl, 10DAA2, Trial 1, read-out: % Efficacy on Adults",37%
same,Emax,"[3]; 12.5 g ai/hl, 10DAA2, Trial 2, read-out: % Efficacy on Adults",37%
same,Emax,"[3]; 12.5 g ai/hl, 10DAA3, Trial 1, read-out: % Efficacy on Adults",46%
same,Emax,"[3]; 12.5 g ai/hl, 10DAA3, Trial 2, read-out: % Efficacy on Adults",46%
same,Emax,"[3]; 12.5 g ai/hl, 15DAA3, Trial 1, read-out: % Efficacy on Adults",38%
same,Emax,"[3]; 12.5 g ai/hl, 15DAA3, Trial 2, read-out: % Efficacy on Adults",38%
same,Emax,"[3]; 12.5 g ai/hl, 20DAA3, Trial 1, read-out: % Efficacy on Adults",12%
same,Emax,"[3]; 12.5 g ai/hl, 20DAA3, Trial 2, read-out: % Efficacy on Adults",12%
same,Emax,"[3]; 12.5 g ai/hl, Avg, Trial 1, read-out: % Efficacy on Adults Avg % C",41%
same,Emax,"[3]; 25 g ai/hl, 5DAA1, Trial 1, read-out: % Efficacy on Adults",59%
same,Emax,"[3]; 25 g ai/hl, 5DAA1, Trial 2, read-out: % Efficacy on Adults",59%
same,Emax,"[3]; 25 g ai/hl, 5DAA2, Trial 1, read-out: % Efficacy on Adults",52%
same,Emax,"[3]; 25 g ai/hl, 5DAA2, Trial 2, read-out: % Efficacy on Adults",52%
same,Emax,"[3]; 25 g ai/hl, 5DAA3, Trial 1, read-out: % Efficacy on Adults",57%
same,Emax,"[3]; 25 g ai/hl, 5DAA3, Trial 2, read-out: % Efficacy on Adults",57%
same,Emax,"[3]; 25 g ai/hl, 10DAA1, Trial 1, read-out: % Efficacy on Adults",43%
same,Emax,"[3]; 25 g ai/hl, 10DAA1, Trial 2, read-out: % Efficacy on Adults",43%
same,Emax,"[3]; 25 g ai/hl, 10DAA2, Trial 1, read-out: % Efficacy on Adults",39%
same,Emax,"[3]; 25 g ai/hl, 10DAA2, Trial 2, read-out: % Efficacy on Adults",39%
same,Emax,"[3]; 25 g ai/hl, 10DAA3, Trial 1, read-out: % Efficacy on Adults",49%
same,Emax,"[3]; 25 g ai/hl, 10DAA3, Trial 2, read-out: % Efficacy on Adults",49%
same,Emax,"[3]; 25 g ai/hl, 15DAA3, Trial 1, read-out: % Efficacy on Adults",40%
same,Emax,"[3]; 25 g ai/hl, 15DAA3, Trial 2, read-out: % Efficacy on Adults",40%
same,Emax,"[3]; 25 g ai/hl, 20DAA3, Trial 1, read-out: % Efficacy on Adults",22%
same,Emax,"[3]; 25 g ai/hl, 20DAA3, Trial 2, read-out: % Efficacy on Adults",22%
same,Emax,"[3]; 25 g ai/hl, Avg, Trial 1, read-out: % Efficacy on Adults Avg % C",45%
same,Emax,"[4]; 12.5 g ai/hl, 5DAA2, Trial 1, read-out: % Efficacy on Nymphs",5%
same,Emax,"[4]; 12.5 g ai/hl, 5DAA2, Trial 2, read-out: % Efficacy on Nymphs",5%
same,Emax,"[4]; 12.5 g ai/hl, 5DAA3, Trial 1, read-out: % Efficacy on Nymphs",62%
same,Emax,"[4]; 12.5 g ai/hl, 5DAA3, Trial 2, read-out: % Efficacy on Nymphs",62%
same,Emax,"[4]; 12.5 g ai/hl, 10DAA2, Trial 1, read-out: % Efficacy on Nymphs",52%
same,Emax,"[4]; 12.5 g ai/hl, 10DAA2, Trial 2, read-out: % Efficacy on Nymphs",52%
same,Emax,"[4]; 12.5 g ai/hl, 10DAA3, Trial 1, read-out: % Efficacy on Nymphs",46%
same,Emax,"[4]; 12.5 g ai/hl, 10DAA3, Trial 2, read-out: % Efficacy on Nymphs",46%
same,Emax,"[4]; 12.5 g ai/hl, 15DAA3, Trial 1, read-out: % Efficacy on Nymphs",42%
same,Emax,"[4]; 12.5 g ai/hl, 15DAA3, Trial 2, read-out: % Efficacy on Nymphs",42%
same,Emax,"[4]; 12.5 g ai/hl, 20DAA3, Trial 1, read-out: % Efficacy on Nymphs",27%
same,Emax,"[4]; 12.5 g ai/hl, 20DAA3, Trial 2, read-out: % Efficacy on Nymphs",27%
same,Emax,"[4]; 12.5 g ai/hl, Avg, Trial 1, read-out: % Efficacy on Nymphs Avg % C",39%
same,Emax,"[4]; 25 g ai/hl, 5DAA2, Trial 1, read-out: % Efficacy on Nymphs",57%
same,Emax,"[4]; 25 g ai/hl, 5DAA2, Trial 2, read-out: % Efficacy on Nymphs",57%
same,Emax,"[4]; 25 g ai/hl, 5DAA3, Trial 1, read-out: % Efficacy on Nymphs",66%
same,Emax,"[4]; 25 g ai/hl, 5DAA3, Trial 2, read-out: % Efficacy on Nymphs",66%
same,Emax,"[4]; 25 g ai/hl, 10DAA2, Trial 1, read-out: % Efficacy on Nymphs",65%
same,Emax,"[4]; 25 g ai/hl, 10DAA2, Trial 2, read-out: % Efficacy on Nymphs",65%
same,Emax,"[4]; 25 g ai/hl, 10DAA3, Trial 1, read-out: % Efficacy on Nymphs",53%
same,Emax,"[4]; 25 g ai/hl, 10DAA3, Trial 2, read-out: % Efficacy on Nymphs",53%
same,Emax,"[4]; 25 g ai/hl, 15DAA3, Trial 1, read-out: % Efficacy on Nymphs",55%
same,Emax,"[4]; 25 g ai/hl, 15DAA3, Trial 2, read-out: % Efficacy on Nymphs",55%
same,Emax,"[4]; 25 g ai/hl, 20DAA3, Trial 1, read-out: % Efficacy on Nymphs",39%
same,Emax,"[4]; 25 g ai/hl, 20DAA3, Trial 2, read-out: % Efficacy on Nymphs",39%
same,Emax,"[4]; 25 g ai/hl, Avg, Trial 1, read-out: % Efficacy on Nymphs Avg % C",56%
